Source: patent US20050234046A1 (Kalypsys, Inc., priority 2004, published 2005)

Columns and labels:
Assay in all cases: Transient transfection (transactivation) assay in CV-1 cells, GAL4-PPAR chimera, luciferase reporter
Format in all cases: cell-based
PPAR delta = target: T1, PPAR delta (Homo sapiens, UniProt Q03181)
T1 construct: expressed in transfected cells; host or cells: CV-1 cells
T1 sequence (Q03181 211-439 limits assumed): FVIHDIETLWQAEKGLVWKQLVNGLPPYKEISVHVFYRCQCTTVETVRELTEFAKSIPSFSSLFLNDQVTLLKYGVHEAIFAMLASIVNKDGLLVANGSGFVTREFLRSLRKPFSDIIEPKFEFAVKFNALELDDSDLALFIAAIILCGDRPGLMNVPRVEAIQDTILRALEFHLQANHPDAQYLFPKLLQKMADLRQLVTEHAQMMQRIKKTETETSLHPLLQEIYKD

PPAR alpha = target: T2, PPAR alpha (Homo sapiens, UniProt Q07869)
T2 construct: expressed in transfected cells; host or cells: CV-1 cells
T2 sequence (Q07869 239-466 limits assumed): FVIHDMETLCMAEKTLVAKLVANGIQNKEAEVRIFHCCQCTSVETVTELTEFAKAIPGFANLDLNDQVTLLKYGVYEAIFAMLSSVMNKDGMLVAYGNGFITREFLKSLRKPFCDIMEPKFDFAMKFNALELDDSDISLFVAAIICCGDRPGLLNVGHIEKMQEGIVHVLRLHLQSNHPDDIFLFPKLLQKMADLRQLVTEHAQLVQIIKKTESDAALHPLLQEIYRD
Procedure, shortened: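 GAL4 DNA-binding domain fused to PPAR ligand binding domain, co-transfected into CV-1 cells with a luciferase reporter carrying four or five GAL4 sites. Replated cells in phenol-red free DME with 5% delipidated calf serum were treated with compound or 1% DMSO for 20-24 hours; luciferase read for EC50 and efficacy.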

PPAR gamma = target: T3, PPAR gamma (Homo sapiens, UniProt P37231)
T3 construct: expressed in transfected cells; host or cells: CV-1 cells
T3 sequence (P37231 238-503 limits assumed): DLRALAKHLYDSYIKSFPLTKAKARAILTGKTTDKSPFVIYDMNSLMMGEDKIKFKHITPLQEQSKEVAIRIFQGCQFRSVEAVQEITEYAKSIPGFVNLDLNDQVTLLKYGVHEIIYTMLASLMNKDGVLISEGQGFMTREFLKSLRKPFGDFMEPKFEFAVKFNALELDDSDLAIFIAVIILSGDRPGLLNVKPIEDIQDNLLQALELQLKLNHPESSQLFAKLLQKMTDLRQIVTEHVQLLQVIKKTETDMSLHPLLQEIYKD

SMILES	EC50 (PPAR delta)	EC50 (PPAR alpha)	EC50 (PPAR gamma)
Cc1cc(CC(=O)O)cc(S(=O)(=O)N2[C@H](C)CN(c3ccc(C(F)(F)F)cn3)C[C@@H]2C)c1 [Example 229, {3-[2,6-Dimethyl-4-(5-trifluoromethyl-pyridin-2-yl)-piperazine-1-sulfonyl]-5-methyl-phenyl}-acetic acid]	< 5 µM	> 100 µM	> 100 µM
O=C(O)Cc1c(F)ccc(S(=O)(=O)N2CCN(c3ccc(C(F)(F)F)cn3)CC2)c1F [Example 230, {2,6-Difluoro-3-[4-(5-trifluoromethyl-pyridin-2-yl)-piperazine-1-sulfonyl]-phenyl}-acetic acid]	< 5 µM	5 to 100 µM	5 to 100 µM
C[C@@H]1CN(c2ccc(C(F)(F)F)cn2)C[C@H](C)N1S(=O)(=O)c1ccc(F)c(CC(=O)O)c1F [Example 231, {3-[2,6-Dimethyl-4-(5-trifluoromethyl-pyridin-2-yl)-piperazine-1-sulfonyl]-2,6-difluoro-phenyl}-acetic acid]	5 to 100 µM	> 100 µM	> 100 µM
C[C@@H]1CN(c2ccc(OC(F)(F)F)cc2)C[C@H](C)N1S(=O)(=O)c1ccc(F)c(CC(=O)O)c1F [Example 232, {3-[2,6-Dimethyl-4-(4-trifluoromethoxy-phenyl)-piperazine-1-sulfonyl]-2,6-difluoro-phenyl}-acetic acid]	< 5 µM	> 100 µM	> 100 µM
Cc1cc(CC(=O)O)cc(S(=O)(=O)N2C3CCC2CN(c2ccc(OC(F)(F)F)cc2)C3)c1 [Example 233, {3-Methyl-5-[3-(4-trifluoromethoxy-phenyl)-3,8-diaza-bicyclo[3.2.1]octane-8-sulfonyl]-phenyl}-acetic acid]	< 5 µM	5 to 100 µM	5 to 100 µM
